Reference: patent publication US4049898A (priority 1975, dated 1977)

Key:
physchem = conditions: water, pH 2, water
fungus organisms = conditions: background statement; cited from earlier work
[1] = forms otherwise stable and appropriate; background statement; cited from earlier work

## C[C@@H]1[C@H](O)[C@@H](C)/C=C/C=C/C=C/C=C/C=C/C=C/C=C/[C@H](O[C@@H]2O[C@H](C)[C@@H](O)[C@H](N)[C@@H]2O)C[C@@H]2O[C@](O)(C[C@@H](O)C[C@@H](O)[C@H](O)CC[C@@H](O)C[C@@H](O)CC(=O)O[C@H]1C)C[C@H](O)[C@H]2C(=O)O [amphotericin B]
Solubility in methanol; 750 ml methanol
  amount soluble in 750 ml of methanol: 100 mg
physchem
  solubility: < 1000 µg/mL
Fungus organisms
  antifungal properties: powerful antifungal properties
  development of resistant strains or forms: apparent inability of fungus organisms to develop readily any strains or forms that are resistant to amphotericin B
other
  solubility in methanol at pH 9.5 (in words): completely soluble
[1]
  water solubility (background, in words): lack of adequate water solubility

## Amphotericin B-Calcium-Oxalic Acid Complex [Example 1]
Solubility in methanol; 100 mg added to 750 ml methanol
  extent of solubilization in methanol: 40%
Solubility in methanol; 100 mg in 80 ml methanol, pH adjusted to 9.5 with triethylamine
  extent of solubility in methanol at pH 9.5: 35%
